{"source": "patent US7638055B2", "about": "“Sludge quality” (Rhodia Operations, priority 2004, dated 2009)", "key": {"[1]": {"system": "filamentous bacteria in the sludge", "conditions": "2 and 4 mg/l/day Compound X, flash mixing, vs untreated control, 52 day experiment", "description": "(§1) A series of semi-continuous chemostat reactors was constructed to simulate wastewater treatment processes.\n(§2) The central part of the equipment is the biological chemostat reactor 1. The reactor vessel 2 is made of glass, with an internal volume of 10 liters and is fitted with pH 3 and dissolved oxygen 4 sensors and an air sparge 5. This contains the sludge, which is, essentially, a mass of typical wastewater treatment microorganisms. The reactor operates at an ambient temperature (approximately 20° C.).\n(§3) Simulated wastewater 13 is contained in a separate vessel 6 and maintained at 4° C. to prevent microbial spoilage. It is transferred into the reactor via a supply line 7 and a peristaltic pump 8.\n(§4) A recirculating line 9 is provided on the reactor comprising a length of flexible silicone tubing and a peristaltic pump 10. The peristaltic pump extracts the sludge from the reactor into the recirculation line. The candidate water-soluble biocide is introduced into this line 9 through a needle 11, which is fed by a syringe pump 12. Using this system it is possible to achieve “flash mixing” which ensures rapid contact of the water-soluble biocide with the sludge microorganisms. […]\n(§5) Compound X was evaluated in the test. […] Two concentrations were evaluated: 2 and 4 milligrams per liter per day, as well as a control with no treatment by Compound X."}, "[2]": {"system": "protozoans and other higher organisms", "conditions": "2 and 4 mg/l/day Compound X, treated sludge relative to untreated", "description": "as §1, §2, §3, §4, §5"}, "filamentous bacteria": {"system": "filamentous bacteria", "conditions": "for Observations (filamentous bacteria): sample 48 days after start up, magnification x220", "experimental": "Samples were taken from the semi-continuous reactors described in Example 1, 48 days after the start up of the trial.\nA sample of each of the Compound X concentrations tested in the reactors of Example 1 was evaluated in this test. Accordingly, samples with 2 and 4 milligrams per liter per day treatment of Compound X were tested, as well as a control with no treatment by Compound X.\nThe samples were observed through phase contrast microscope magnification×220."}}, "note": "Like-named read-outs stand apart in the source and are kept apart here.", "data": [{"substance": "tetrakis(hydroxymethyl)phosphonium sulphate [Compound X]", "values": [{"measurement": "filamentous bacteria in the sludge", "setting": "[1]", "value": "substantially absent"}, {"measurement": "concentration of protozoans and other higher organisms in the sludge", "setting": "[2]", "value": "significantly higher concentration of protozoans and other higher organisms"}, {"measurement": "Observations (filamentous bacteria)", "setting": "filamentous bacteria; 2 mg/l/day", "value": "No filamentous bacteria present,"}, {"measurement": "Observations (filamentous bacteria)", "setting": "filamentous bacteria; 4 mg/l/day", "value": "No filamentous bacteria present,"}, {"measurement": "reduction of filamentous bacteria and sludge settling", "setting": "filamentous bacteria; two doses of 4 mg/l/day (4 mg/l dose on two consecutive days)", "value": "Reduction of filamentous bacteria and thus improved sludge settling"}, {"measurement": "level of filaments after treatment was stopped", "setting": "filamentous bacteria; two doses of 4 mg/l/day, without further treatment", "value": "remained low for more than one week"}]}]}
